{
  "source": "patent US11104735B2",
  "about": "“Inhibition of cytokine-induced SH2 protein in NK cells” (The Walter and Eliza Hall Institute of Medical Research, priority 2015, dated 2021)",
  "key": {"LWT1 melanoma cells": {"tested_on": "LWT1 melanoma cells", "test": "LWT1 experimental lung metastasis", "assay_type": "in vivo, mouse", "details": "Cish−/− mice, 7.5×10^5 cells i.v., day 14", "protocol": "Mice were monitored for tumor development and were euthanized at the point of abdominal swelling and discomfort. Improved survival between groups was assessed by the Log-rank Mantel-Cox test. (D) Groups of 5-15 B6.WT (Cish^+/+) or B6.Cish^-/- mice were injected i.v. with 5×10^5 RM-1 prostate carcinoma cells and treated with either cIg, anti-CD96, anti-PD-1, anti-CTLA-4 or anti-PD1/anti-CTLA-4 combination (250 μg i.p. each on days 0 and 3). (E) Groups of 8-10 B6.WT (Cish^+1 or B6.Cish^-/- mice were injected i.v. with 7.5×10^5 B16F10 melanoma cells and treated with either 250 μg cIg or anti-CD96 mAb (i.p. on days 0 and 3). (F) Groups of 5-6 B6.WT (Cish^+1 or B6.Cish^-/- mice were injected i.v. with 7.5×10^5 LWT1 melanoma cells and treated with either vehicle or PLX4720 (10 mg/kg i.p., daily from day 0 to 6). Lungs were harvested on (A, D, F) day 14 or (B, E) day 13 and macrometastases counted. Individual mice are shown by each symbol and the results are plotted as mean±SEM. Statistically significant differences as indicated were determined by one-way ANOVA with Tukey post-test (for multiple comparisons) (*: […]; **: p<0.01; ***: p<0.001; ****: p<0.0001). […] Lungs were harvested on day 14 and macrometastases counted. […] Lungs were harvested on day 14 and either fixed in Bouin's solution and B16F10 metastases counted^44 or analysed for NK cell expansion by flow cytometry. […]"}, "[1]": {"tested_on": "advanced malignant melanoma", "details": "patients; cited from earlier work"}, "CIS": {"target": "T1, CIS (Homo sapiens, UniProt Q9NSE2, DEL174-202)", "T1 construct": "fragment: residues 66-258 with a deletion of; GST (N); made in house; host or cells: E. coli BL21(DE3)", "test": "Kinase inhibition assay with competitor of CIS-SH2 binding", "assay_type": "biochemical", "details": "for Effect on CIS-mediated inhibition of JAK1 JH1: CIS-SH2-BC, excess JAK1-Y1034 phosphopeptide as competitor", "protocol": "(a) Cultured NK cells from wild-type and Cish^−/− mice were lysed, mRNA purified and analysed by RNAseq. Mean RPKM values for duplicate samples (left panel). JAK1 mRNA levels were analysed by Q-PCR (right panel). Mean±S.D., n=3. (b) 4-12% Coomassie-stained SDS-PAGE gel showing purified hCIS-SH2-BC complex, elongin B and elongin C. (c) Isothermal calorimetry (ITC) was used to measure the affinity of hCIS-SH2-BC binding to phosphopeptides corresponding to tyrosines within the JAK1/3 kinase domain activation loops and IL-2Rβ and γ cytoplasmic domains. […] were titrated into a 30 μM solution of the GST-CIS-SH2-BC ternary complex. ITC titration curves and tabular view of some results (inset) showing mean±S.D. from two independent experiments. N.D.=Not detectable, p=phosphorylated. The titration curves all fitted well to a single-site model. (d) Cultured wild-type NK cells were washed and starved of IL-15 for 4 h, with and without addition of the proteasomal inhibitor, MG132. Cells were then stimulated with 50 ng ml^−1 IL-15 for the indicated times, prior to cell lysis and Western blotting with antibodies to the indicated proteins. (e) Kinase inhibition assays were performed with the kinase domain (JH1) of JAK1 in the presence of CIS-SH2-BC with and without excess JAK1-Y1034 phosphopeptide as a competitor. […] Data were normalised to no-CIS controls.\n(c) Alternatively, 50 μM JAK1-Y1034 or JAK3-Y980,Y981 phosphopeptides were used as competitor. Data were normalised to no-CIS controls. All CIS constructs contained the SOCS box and were expressed and purified as a trimeric complex consisting of CIS, elongin B and elongin C.\nKinase inhibition assays were performed essentially as described (Babon et al., 2012). Briefly, 130 μM STAT5b peptide (SEQ ID NO:18 […]) was incubated with 5 nM JAK1 at 25° C. for 30-60 min in 20 mM Tris pH 8.0, 100 mM NaCl, 5 mM 2-mercaptoethanol, 0.2 mg ml^−1 bovine serum albumin, 2 mM MgCl2, 100 μM ATP and 1 mCi γ-[32P]ATP. Recombinant CIS-SH2-BC was present at concentrations ranging from 0-30 μM. After incubation, the reaction was spotted onto P81 phosphocellulose paper and quenched in 5% H3PO4. The paper was washed (4×200 ml, 15 min) with 5% H3PO4 and exposed to a phosphorimager plate (Fuji). Quantitation was performed using Fuji software and IC50 curves calculated using Graphpad Prism."}, "[2]": {"target": "T2, JAK3 phosphopeptide (JAK3-Y980,Y981) (Homo sapiens, UniProt P52333)", "T2 construct": "purchased Genscript", "test": "ITC, CIS constructs binding to JAK3 phosphopeptide", "details": "CIS constructs with elongins B and C", "protocol": "300 μM phosphopeptides were titrated into a 30 μM solution of the GST-CIS-SH2-BC ternary complex. ITC titration curves are shown. The titration curves all fitted well to a single-site model.\nIsothermal calorimetric titrations were performed with a Microcal ITC200 (GE Healthcare). Phosphopeptides were obtained from Genscript. An optimised GST-CIS protein construct was prepared in which the internal PEST region ([…]) was deleted. The resulting ternary GST-CIS-SH2-SB complexes were dialysed against buffer (20 mM Tris pH 8.0, 100 mM NaCl, 2 mM 2-mercaptoethanol). Experiments were performed at 298 K unless stated otherwise. Typically, 12×3.15 μl injections of 300 μM phosphopeptides were titrated into a 30 μM solution of the GST-CIS-SH2-SB ternary complex. The heat of dilution of GST-CIS-SH2-BC was subtracted from the raw data of the binding experiment. Data were analysed using the evaluation software, Microcal Origin version 5.0. The binding curve fitted a single-site binding mode and all KD values were determined from duplicate experiments."}, "[3]": {"tested_on": "JAK1 phosphorylation in 293T cells", "test": "JAK1 phosphorylation in 293T cells co-expressing JAK1 and CIS", "assay_type": "cell-based, human", "details": "pre-incubation of 293T cells, 10 μM for 4 h", "protocol": "(a) Isothermal calorimetry (ITC) was used to measure the affinity of hCIS-SH2-BC binding to phosphopeptides corresponding to tyrosines within the JAK1/3 kinase domain activation loops and IL-2Rβ cytoplasmic domains. Tabular view of the results, showing mean±S.D. from two independent experiments. N.D.=Not detectable, p=phosphorylated. […] In some instances, cells were treated with the proteasome inhibitor, MG132. […] Protein expression levels are shown by anti-FLAG blots of whole cell lysates (lower panels). […] Protein levels are shown in the lower panels by anti-FLAG blot of cell lysates. (e) Using a cell-free system, FLAG-JAK1 was incubated with (+) and without (−) the CIS-E3 ligase complex (CIS-SH2-BC with Cullin5 and Rbx2), together with ubiquitin, E1 and E2 enzymes at 37° C. for the times indicated. JAK1 ubiquitination was visualised by Western blotting with antibodies to […]. […] Data were normalised to no-CIS controls. […] See also FIG. 9.\nLysates were clarified by centrifugation at 16,060×g for 15 min at 4° C. Protein concentrations were determined by the BCA method (Pierce, Rockford). […] In some instances, cells were pre-treated with 10 μM MG132 for 4 h to block proteasomal degradation. 48 h post-transfection cells were lysed in KALB buffer (Nicholson et al., 1995). FLAG proteins were immunoprecipitated using M2-beads (Sigma) and proteins eluted in SDS sample buffer. […]"}, "primary human NK cells": {"tested_on": "primary human NK cells", "test": "Immunoblot of IL-15 treated primary human NK cells", "assay_type": "cell-based", "details": "2 h with IL-15, 10 μM", "protocol": "Patient-derived human NK cells (a) or NK lymphoma cell lines (b) SNK-10, (c) NKL and NK6, (d) NK-92 were washed free of cytokine and rested for 4 h (a) or 16 h (b-d) prior to treatment with IL-15 for the indicated times. In some instances, cells were incubated with the proteasomal inhibitor MG132 (10 μM). Cells were lysed and analysed by immunoblotting with antibodies to the indicated phosphorylated (p) and total proteins."}, "wild-type NK cells": {"tested_on": "wild-type NK cells", "test": "JAK1 phosphorylation in IL-15 stimulated wild-type NK cells", "assay_type": "cell-based, mouse", "details": "IL-15 50 ng/ml", "protocol": "(a) Cultured NK cells from wild-type and Cish^−/− mice were lysed, mRNA purified and analysed by RNAseq. Mean RPKM values for duplicate samples (left panel). JAK1 mRNA levels were analysed by Q-PCR (right panel). Mean±S.D., n=3. (b) 4-12% Coomassie-stained SDS-PAGE gel showing purified hCIS-SH2-BC complex, elongin B and elongin C. (c) Isothermal calorimetry (ITC) was used to measure the affinity of hCIS-SH2-BC binding to phosphopeptides corresponding to tyrosines within the JAK1/3 kinase domain activation loops and IL-2Rβ and γ cytoplasmic domains. […] were titrated into a 30 μM solution of the GST-CIS-SH2-BC ternary complex. ITC titration curves and tabular view of some results (inset) showing mean±S.D. from two independent experiments. N.D.=Not detectable, p=phosphorylated. The titration curves all fitted well to a single-site model. (d) Cultured wild-type NK cells were washed and starved of IL-15 for 4 h, with and without addition of the proteasomal inhibitor, MG132. Cells were then stimulated with 50 ng ml^−1 IL-15 for the indicated times, prior to cell lysis and Western blotting with antibodies to the indicated proteins. […]\nLysates were clarified by centrifugation at 16,060×g for 15 min at 4° C. Protein concentrations were determined by the BCA method (Pierce, Rockford). […]"}},
  "note": "Residues, ends and D or L forms follow the SMILES beside them. *: point of attachment. Cbz = O=C(OCc1ccccc1)*",
  "data": [
    {"compound": "CCCS(=O)(=O)Nc1ccc(F)c(C(=O)c2c[nH]c3ncc(Cl)cc23)c1F", "note": "[PLX4720]", "values": [
      {"measurement": "LWT1 lung metastasis", "setting": "LWT1 melanoma cells", "value": "further reduced"}
    ]},
    {"compound": "Ipilimumab: antibody-based therapy that targets CTLA-4", "values": [
      {"measurement": "Tumour responses", "setting": "[1]", "value": "10-12%"}
    ]},
    {"compound": "JAK1-Y1034: phosphopeptide corresponding to a singly-phosphorylated JAK1 activation loop (Tyr1034)", "values": [
      {"measurement": "Effect on CIS inhibition of JAK1 kinase activity", "setting": "CIS; 50 μM free phosphopeptide as competitor", "value": "dramatically reduced the ability of CIS to inhibit JAK1 kinase activity"},
      {"measurement": "Effect on CIS-mediated inhibition of JAK1 JH1", "setting": "CIS; listed as JAK1 activation loop peptide", "value": "only partial reduction of inhibition"},
      {"measurement": "Effect on CIS-mediated inhibition of JAK1 JH1", "setting": "CIS; listed as pY1034 peptide", "value": "partially reduced CIS-mediated inhibition"}
    ]},
    {"compound": "O=P(O)(O)Oc1ccccc1", "note": "[phenyl phosphate, reference compound]", "values": [
      {"measurement": "Effect on CIS inhibition of JAK1 kinase activity", "setting": "CIS; excess phenyl phosphate as competitor, all CIS constructs", "value": "abrogated the ability of all CIS constructs to inhibit JAK1 kinase activity"}
    ]},
    {"compound": "full-length CIS: human full-length CIS protein expressed with elongins B and C as trimeric complex", "values": [
      {"measurement": "Binding affinity (ITC) to JAK3 phosphopeptide", "setting": "[2]", "value": "comparable affinity"}
    ]},
    {"compound": "CC(C)C[C@@H](C=O)NC(=O)[C@H](CC(C)C)NC(=O)[C@H](CC(C)C)NC(=O)OCc1ccccc1", "note": "[MG132] (Cbz-Leu-Leu-Leu-aldehyde)", "values": [
      {"measurement": "Effect on CIS-mediated regulation of JAK1 phosphorylation", "setting": "[3]", "value": "reduced CIS-mediated regulation of JAK1 phosphorylation"},
      {"measurement": "JAK1 phosphorylation", "setting": "primary human NK cells", "value": "remained reduced"},
      {"measurement": "Total JAK1 and CIS levels", "setting": "primary human NK cells", "value": "increase total JAK1 and CIS levels"},
      {"measurement": "Phosphorylation of endogenous JAK1", "setting": "wild-type NK cells", "value": "increase in phosphorylation of endogenous JAK1"}
    ]}
  ]
}
